Test results as given in US9856263B2, “Heteroaromatic compounds and their use as dopamine D1 ligands” (PFIZER INC., priority 2014, dated 2018).
Where two headings read alike, the source gives them in different places.

Biological target: Human D1 Receptor (Homo sapiens (Human), UniProt P21728)
Assay: Human D1 receptor binding assay ([3H]-SCH23390 competition binding)
Details: over-expressing LTK human cell lines, 0.5 nM [3H]-SCH23390, 30 min at 37° C., footnote a = single determination, b = geometric mean of ≧5 determinations
Description: D1 binding assays were performed using over-expressing LTK human cell lines. […] These ligand and tissue concentrations were used in time course studies to determine linearity and equilibrium conditions for binding. […] The pellet was resuspended in assay buffer [50 mM Tris (pH 7.4@ RT) containing 4 mM MgSO4 and 0.5 mM EDTA]. […] Non-specific binding was determined by radioligand binding in the presence of a saturating concentration of (+)-Butaclamol (10 μM), a D1 antagonist After a 30 minute incubation period at 37° C., assay samples were rapidly filtered through Unifilter-96 GF/B PEI-coated filter plates and rinsed with 50 mM Tris buffer (pH 7.4 at 4° C.). […] Ki values were calculated according to the Cheng-Prusoff equation: […]

[1] = read-out: Human D1 Receptor Binding, Ki (nM), Geometric mean of 2-4 determinations (unless otherwise indicated)

Sequence of Human D1 Receptor (P21728 whole entry): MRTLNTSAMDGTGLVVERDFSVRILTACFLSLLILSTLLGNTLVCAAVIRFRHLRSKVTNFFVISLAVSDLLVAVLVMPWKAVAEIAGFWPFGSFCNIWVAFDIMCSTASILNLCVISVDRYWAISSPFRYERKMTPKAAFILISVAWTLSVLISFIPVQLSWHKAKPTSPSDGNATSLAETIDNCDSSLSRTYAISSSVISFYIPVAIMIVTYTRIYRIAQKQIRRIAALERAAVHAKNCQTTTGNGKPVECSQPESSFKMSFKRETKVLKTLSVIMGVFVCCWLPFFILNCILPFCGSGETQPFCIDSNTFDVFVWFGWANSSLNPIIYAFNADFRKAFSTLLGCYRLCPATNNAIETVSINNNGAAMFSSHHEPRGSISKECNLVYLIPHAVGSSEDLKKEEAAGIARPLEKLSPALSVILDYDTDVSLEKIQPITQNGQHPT

Ki [1] [nM]	Ki [nM]	Structure (SMILES)
198		Cc1cc(Oc2nccn3cccc23)ccc1-c1c(C)nnc2nccn12 [Example 28, 3-methyl-4-[2-methyl-4-(pyrrolo[1,2-a]pyrazin-1-yloxy)phenyl]imidazo[2,1-c][1,2,4]triazine]
22.1		Cc1cc(Oc2nccn3cccc23)ccc1-c1c(C)ncnc1C [Example 4, 1-[4-(4,6-dimethylpyrimidin-5-yl)-3-methylphenoxy]pyrrolo[1,2-a]pyrazine]
49.4		Cc1ncnc(C)c1-c1ccc(Oc2nccn3cccc23)c(F)c1 [Example 34, 1-[4-(4,6-dimethylpryimidin-5-yl)-2-fluorophenoxy]pyrrolo[1,2-a]pyrazine]
31.5		Cc1cc(Oc2nccn3cccc23)c(F)cc1-c1c(C)ncnc1C [Example 35, 1-[4-(4,6-dimethylpyrimidin-5-yl)-2-fluoro-5-methylphenoxy]pyrrolo[1,2-a]pyrazine]
12.7		Cc1ncnc(C)c1-c1ccc(Oc2nccn3cccc23)cc1Cl [Example 37, 1-[3-chloro-4-(4,6-dimethylpyrimidin-5-yl)phenoxy]pyrrolo[1,2-a]pyrazine]
107		Cc1cc(Oc2nccn3nccc23)ccc1-c1c(C)ncc2nccn12 [Example 8, 6-methyl-5-[2-methyl-4-(pyrazolo[1,5-a]pyrazin-4-yloxy)phenyl](8-^2H)imidazo[1,2-a]pyrazine]
31.2		Cc1cc(Oc2ncnn3cccc23)ccc1-c1c(C)ncc(=O)n1C [Example 39, 1,5-dimethyl-6-[2-methyl-4-(pyrrolo[2,1-f][1,2,4]triazin-4-yloxy)phenyl]pyrazin-2(1H)-one]
102		Cc1ncnc(C)c1-c1ccc(Oc2nccn3cccc23)cc1 [Example 21, 1-[4-(4,6-dimethylpyrimidin-5-yl)phenoxy]pyrrolo[1,2-a]pyrazine]
252		Cc1ncnc(C)c1-c1ccc(Oc2ncnn3cccc23)c(F)c1 [Example 33, 4-[4-(4,6-dimethylpyrimidin-5-yl)-2-fluorophenoxy]pyrrolo[2,1-f][1,2,4]triazine]
13.1		Cc1cc(Oc2nccn3cccc23)ccc1-c1c(C)cnnc1C (single isomer, unassigned) [Example 13, (+)-1-[4-(3,5-dimethylpyridazin-4-yl)-3-methylphenoxy]pyrrolo[1,2-a]pyrazine]
85.7		Cc1ncnc(C)c1-c1cc(F)c(Oc2ncnn3cccc23)cc1F [Example 29, 4-[4-(4,6-dimethylpyrimidin-5-yl)-2,5-difluorophenoxy]pyrrolo[2,1-f][1,2,4]triazine]
183		Cc1ncnc(C)c1-c1ccc(Oc2nccn3nccc23)cc1F [Example 17, 4-[4-(4,6-dimethylpyrimidin-5-yl)-3-fluorophenoxy]pyrazolo[1,5-a]pyrazine]
18.8		Cc1n[nH]c(=O)c(C)c1-c1ccc(Oc2nccn3cccc23)cc1 [Example 14, 4,6-dimethyl-5-[4-(pyrrolo[1,2-a]pyrazin-1-yloxy)phenyl]pyridazin-3(2H)-one]
116		Cc1ncnc(C)c1-c1ccc(Oc2ncnn3cccc23)c(F)c1C [Example 32, 4-[4-(4,6-dimethylpyrimidin-5-yl)-2-fluoro-3-methylphenoxy]pyrrolo[2,1-f][1,2,4]triazine]
7.3		Cc1c(-c2ccc(Oc3nccn4cccc34)cc2)n(C)c(=O)[nH]c1=O [Example 15, 1,5-dimethyl-6-[4-(pyrrolo[1,2-a]pyrazin-1-yloxy)phenyl]pyrimidine-2,4(1H,3H)-dione]
83.9		COc1cc(Oc2ncnn3cccc23)ccc1-c1cccnc1C [Example 24, 4-[3-methoxy-4-(2-methylpyridin-3-yl)phenoxy]pyrrolo[2,1-f][1,2,4]triazine]
894		COc1cc(Oc2nccn3nccc23)ccc1-c1c(C)ncnc1C [Example 23, 4-[4-(4,6-dimethylpyrimidin-5-yl)-3-methoxyphenoxy]pyrazolo[1,5-a]pyrazine]
58.2		Cc1ncnc(C)c1-c1ccc(Oc2ncnn3cccc23)cc1F [Example 16, 4-[4-(4,6-dimethylpyrimidin-5-yl)-3-fluorophenoxy]pyrrolo[2,1-f][1,2,4]triazine]
59.3		Cc1ncnc(C)c1-c1ccc(Oc2nccn3cccc23)cc1F [Example 20, 1-[4-(4,6-dimethylpyrimidin-5-yl)-3-fluorophenoxy]pyrrolo[1,2-a]pyrazine]

Ki [1] [nM]	Ki [nM]	Structure (SMILES)
141		Cc1ncnc(C)c1-c1ccc(Oc2ncnn3cccc23)cc1C#N [Example 38, 2-(4,6-dimethylpyrimidin-5-yl)-5-(pyrrolo[2,1-f][1,2,4]triazin-4-yloxy)benzonitrile]
96.3		Cc1cc(Oc2nccn3cccc23)ccc1-c1c(C)cnnc1C (single isomer, unassigned) [Example 12, (−)-1-[4-(3,5-dimethylpyridazin-4-yl)-3-methylphenoxy]pyrrolo[1,2-a]pyrazine]
28.1		COc1cc(Oc2nccn3cccc23)ccc1-c1c(C)cnnc1C [Example 27, 1-[4-(3,5-dimethylpyridazin-4-yl)-3-methoxyphenoxy]pyrrolo[1,2-a]pyrazine]
59		Cc1ncnc(C#N)c1-c1ccc(Oc2nccn3cccc23)cc1F [Example 30, 5-[2-fluoro-4-(pyrrolo[1,2-a]pyrazin-1-yloxy)phenyl]-6-methylpyrimidine-4-carbonitrile]
56.4		COc1cc(Oc2nccn3cccc23)ccc1-c1cccnc1C [Example 25, 1-[3-methoxy-4-(2-methylpyridin-3-yl)phenoxy]pyrrolo[1,2-a]pyrazine]
179		Cc1ncnc(C)c1-c1ccc(Oc2nccn3cccc23)c(F)c1C [Example 31, 1-[4-(4,6-dimethylpyrimidin-5-yl)-2-fluoro-3-methylphenoxy]pyrrolo[1,2-a]pyrazine]
35.8		Cc1cc(Oc2ncnn3cccc23)ccc1-c1c(C)cnnc1C [Example 9, 4-[4-(3,5-dimethylpyridazin-4-yl)-3-methylphenoxy]pyrrolo[2,1-f][1,2,4]triazine]
1820		Cc1ncnc(C)c1-c1ccc(Oc2nccn3nccc23)cc1C#N [Example 11, 2-(4,6-dimethylpyrimidin-5-yl)-5-(pyrazolo[1,5-a]pyrazin-4-yloxy)benzonitrile]
514		Cc1ncnc(C)c1-c1ccc(Oc2nccn3nccc23)cc1 [Example 7, 4-[4-(4,6-dimethylpyrimidin-5-yl)phenoxy]pyrazolo[1,5-a]pyrazine]
> 6400		Cc1cc(Oc2ccnc3ccnn23)ccc1-c1c(C)ncnc1C [Example 40, 7-[4-(4,6-dimethylpyrimidin-5-yl)-3-methylphenoxy]pyrazolo[1,5-a]pyrimidine]
34.7		COc1cc(Oc2nccn3cccc23)ccc1-c1c(C)ncnc1C [Example 41, 1-[4-(4,6-dimethylpyrimidin-5-yl)-3-methoxyphenoxy]pyrrolo[1,2-a]pyrazine]
61.3		Cc1cc(Oc2nccn3nccc23)ccc1-c1c(C)ncnc1C [Example 6, 4-[4-(4,6-dimethylpyrimidin-5-yl)-3-methylphenoxy]pyrazolo[1,5-a]pyrazine]
1150		Cc1cc(Oc2ncnn3cccc23)ccc1-c1c(C)nc2ncccn12 [Example 18, 4-[3-methyl-4-(2-methylimidazo[1,2-a]pyrimidin-3-yl)phenoxy]pyrrolo[2,1-f][1,2,4]triazine]
48.7		Cc1ncnc(C)c1-c1ccc(Oc2ncnn3cccc23)cc1Cl [Example 36, 4-[3-chloro-4-(4,6-dimethylpyrimidin-5-yl)phenoxy]pyrrolo[2,1-f][1,2,4]triazine]
56.4		Cc1cc(Oc2ncnn3cccc23)ccc1-c1c(C)ncnc1C [Example 5, 4-[4-(4,6-dimethylpyrimidin-5-yl)-3-methylphenoxy]pyrrolo[2,1-f][1,2,4]triazine]
105		Cc1cnnc(C)c1-c1ccc(Oc2ncnn3cccc23)cc1F [Example 22, 4-[4-(3,5-dimethylpyridazin-4-yl)-3-fluorophenoxy]pyrrolo[2,1-f][1,2,4]triazine]
86.1		Cc1ncnc(C)c1-c1cc(F)c(Oc2nccn3cccc23)cc1F [Example 26, 1-[4-(4,6-dimethyipyrimidin-5-yl)-2,5-difluorophenoxy]pyrrolo[1,2-a]pyrazine]
672		COc1cc(Oc2ncnn3cccc23)ccc1-c1c(C)ncnc1C [Example 19, 4-[4-(4,6-dimethylpyrimidin-5-yl)-3-methoxyphenoxy]pyrrolo[2,1-f][1,2,4]triazine]
	63.9	Cc1ncnc(C)c1-c1ccc(Oc2nccn3cccc23)cc1C#N [Example 10, 2-(4,6-dimethylpyrimidin-5-yl)-5-(pyrrolo[1,2-a]pyrazin-1-yloxy)benzonitrile]
